Key:
Assay in all cases: relative viability (nuclei count vs DMSO), 5 days (fraction); higher = more cells survive
BAM7 + Dasatinib = compound: CCOC1=CC=CC=C1N=NC2=C(NN(C2=O)C3=NC(=CS3)C4=CC=CC=C4)C [BAM7] + Cc1nc(Nc2ncc(C(=O)Nc3c(C)cccc3Cl)s2)cc(N2CCN(CCO)CC2)n1 [Dasatinib] (partner 0.075 µM)
In short: (§1)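 Lung cancer cell lines in 1536-well plates got either a single drug or a fixed anchor-drug dose together with five library-drug doses (not always all listed) in √10 steps, by pin tool, on the day after seeding. Nuclei were counted after 5 days, and relative viability is the treated-to-vehicle ratio of nuclei counts. Values are medians of duplicate plates.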

[1] = compound: CCn1c(-c2nonc2N)nc2c(C#CC(C)(C)O)ncc(OC[C@H]3CCCNC3)c21 + CC(=O)Nc1cccc(-n2c(=O)n(C3CC3)c(=O)c3c(Nc4ccc(I)cc4F)n(C)c(=O)c(C)c32)c1 [Trametinib] (partner 0.02 µM)
In short: as §1

[2] = compound: CCn1c(-c2nonc2N)nc2c(C#CC(C)(C)O)ncc(OC[C@H]3CCCNC3)c21 + COc1cc2c(Oc3ccc(NC(=O)C4(C(=O)Nc5ccc(F)cc5)CC4)cc3F)ccnc2cc1OCCCN1CCOCC1 [Foretinib] (partner 0.25 µM)
In short: as §1

[3] = compound: CCn1c(-c2nonc2N)nc2c(C#CC(C)(C)O)ncc(OC[C@H]3CCCNC3)c21 + CS(=O)(=O)N1CCN(Cc2cc3nc(-c4cccc5[nH]ncc45)nc(N4CCOCC4)c3s2)CC1 [Pictilisib] (partner 1 µM)
In short: as §1

Cell Line	relative viability (BAM7 + Dasatinib; first compound 0.5 µM)	relative viability (BAM7 + Dasatinib; first compound 5 µM)	relative viability (BAM7 + Dasatinib; first compound 15.81 µM)	relative viability (BAM7 + Dasatinib; first compound 50 µM)	relative viability ([1]; first compound 0.01 µM)	relative viability ([1]; first compound 0.03162 µM)	relative viability ([1]; first compound 0.1 µM)	relative viability ([1]; first compound 0.3162 µM)	relative viability ([1]; first compound 1 µM)	relative viability ([2]; first compound 0.01 µM)	relative viability ([2]; first compound 0.03162 µM)	relative viability ([2]; first compound 0.1 µM)	relative viability ([2]; first compound 0.3162 µM)	relative viability ([2]; first compound 1 µM)	relative viability ([3]; first compound 0.01 µM)	relative viability ([3]; first compound 0.03162 µM)	relative viability ([3]; first compound 0.1 µM)	relative viability ([3]; first compound 0.3162 µM)	relative viability ([3]; first compound 1 µM)
COR-L23	0.476	0.481	0.385	0.502	0.625	0.565	0.486	0.382	0.373	0.835	1.08	0.903	1.02	1	0.794	0.759	0.727	0.705	0.674
ABC-1	0.675	0.624	0.496	0.61						1.04	1.28	1.01	0.813	1.08	0.64	0.862	0.73	0.569	0.634
SW 900	0.358	0.398	0.711	0.656	0.635	0.798	0.762	0.545	0.891	0.92	0.887	0.875	0.798	0.768					
NCI-H838	0.36	0.297	0.295	0.335	0.534	0.556	0.5	0.453	0.494	0.969	1.08	0.988	1.02	1.07	0.496	0.44	0.536	0.499	0.553
NCI-H1648					0.46	0.474	0.481	0.417	0.418										
A549										0.92	1.08	0.886	0.843	0.845	0.505	0.536	0.471	0.334	0.361
A-427	0.845	0.71	0.664	0.826	0.771	0.81	0.742	0.691	0.775	0.978	1.23	1.1	0.981	0.991	0.754	0.649	0.747	0.732	0.554
NCI-H1792	0.827	0.833	0.665	0.822	0.472	0.424	0.504	0.344	0.387						0.322	0.276	0.252	0.233	0.249
LCLC-97TM1	1.05	1.04	0.881	0.945	0.172	0.232	0.216	0.191	0.198	1.03	0.91	1.01	0.877	0.874		0.208	0.231	0.21	0.158
NCI-H1703										0.333	0.313	0.347	0.248	0.356	0.228	0.254	0.226	0.208	0.224
LCLC-103H	0.46	0.512	0.523	0.523	0.615	0.686	0.66	0.642	0.675	0.792	0.981	0.749	0.736	0.847	0.591	0.59	0.527	0.622	0.625
PC-3 [JPC-3]	1.04	0.91	1.02	0.946	0.702		0.732	0.648	0.687	0.982	1.04	1.12	0.902	1.08	0.754	0.744	0.762	0.695	0.643
BEN	0.351	0.351	0.323	0.42	0.973	1.25	0.986	1.03	1.12	0.615	0.467	0.7	0.686	0.683	0.565	0.584	0.489	0.574	0.596
NCI-H1666	0.847	0.832	0.755	0.876	0.819	0.791	0.861	0.819	0.878	0.946	0.957	0.982	1.02	1.02	0.533	0.395	0.543	0.408	0.392
LC-2-ad	0.8	0.555	0.546	0.639	0.9	0.93	0.91	0.89	0.933	0.94	0.906	0.923	0.909	1.01	0.303	0.507	0.505	0.385	0.397
SK-LU-1	0.172	0.18	0.191	0.168	0.527	0.495	0.458	0.443	0.441	0.754	0.896	0.737	0.816	0.749	0.64	0.715	0.498	0.575	0.617
Calu-6										0.85	0.86	0.866	0.824	0.942	0.886	0.973	0.946	0.942	0.909
NCI-H2342	0.286	0.343	0.352	0.316	0.845	0.848	0.87	0.941	0.957	1.1	1.19	1.04	1.07	1.09					
EBC-1										0.106	0.0912	0.0934	0.102	0.0999	0.41	0.386	0.32	0.343	0.262
NCI-H1299										1.09	1.08	1.06	0.717	1.16	0.817	0.954	0.773	0.76	0.753
NCI-H522	0.872	0.976	0.828	0.827	0.826	0.763	0.783	0.667	0.82										
IA-LM										0.955	1.02	1.09	0.946	0.923	0.355	0.316	0.276	0.26	0.168

Source: the supplement of paper PMC10307832
